From article PMC3276566, “Specialized Peptidoglycan Hydrolases Sculpt the Intra-bacterial Niche of Predatory Bdellovibrio and Increase Population Fitness” (PLoS Pathogens, 2012)

Key:
Bd3459 [1] = target: T1, Bd3459 (Bdellovibrio bacteriovorus, UniProt Q6MHT0, A37M/S70A); test: fluorescent labelling, SDS-PAGE, Typhoon fluorescence scan; type: binding; settings: active-site serine mutant; labelled compound; 1.25 ug/ml Bocillin-FL, 75 ug/ml protein, 20 mM sodium phosphate pH 4.8, 10 min, 37 °C
T1 construct: E. coli BL21(DE3), modified pET41 (GST removed), Hi-Trap His column; about 46 kDa; likely monomer
T1 sequence (Q6MHT0 entry or part of it A37M/S70A): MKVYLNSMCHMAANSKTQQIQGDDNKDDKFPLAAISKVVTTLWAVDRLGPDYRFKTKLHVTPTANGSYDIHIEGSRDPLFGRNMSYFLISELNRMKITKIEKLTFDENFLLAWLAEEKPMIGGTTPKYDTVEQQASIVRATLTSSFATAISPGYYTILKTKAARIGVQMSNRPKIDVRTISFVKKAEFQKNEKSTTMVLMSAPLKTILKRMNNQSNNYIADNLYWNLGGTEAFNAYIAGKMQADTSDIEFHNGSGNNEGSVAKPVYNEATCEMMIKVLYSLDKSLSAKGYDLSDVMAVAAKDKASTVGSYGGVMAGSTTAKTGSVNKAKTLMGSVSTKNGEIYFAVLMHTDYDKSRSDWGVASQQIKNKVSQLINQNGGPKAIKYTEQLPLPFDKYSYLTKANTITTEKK

Bd3459 [2] = target: T2, Bd3459 (Bdellovibrio bacteriovorus, UniProt Q6MHT0, A37M); test: as above; type: binding; settings: covalent; labelled compound; 1.25 ug/ml Bocillin-FL, 75 ug/ml protein, 20 mM sodium phosphate pH 4.8, 10 min, 37 °C
T2 construct: E. coli BL21(DE3), modified pET41 (GST removed), Hi-Trap His column; about 46 kDa; likely monomer
T2 sequence (Q6MHT0 entry or part of it A37M): as the sequence (Q6MHT0 entry or part of it A37M/S70A) above, with A34S counted along it

Bd3459 [3] = target: T2, Bd3459; test: HPLC muropeptide analysis of digested pentapeptide-rich peptidoglycan; also competition with Bocillin-FL labelling; type: biochemical; settings: inhibitor pre-incubated at 0.4 mg/ml, 30 min, 37 °C; E. coli CS703-1 peptidoglycan, 20 mM sodium phosphate pH 4.8; labelling assay 2.5 ug/ml ampicillin

| SMILES | fluorescent labelling, SDS-PAGE, Typhoon fluorescence scan (Bd3459 [1]) | fluorescent labelling, SDS-PAGE, Typhoon fluorescence scan (Bd3459 [2]) | HPLC muropeptide analysis of digested pentapeptide-rich peptidoglycan; also comp (Bd3459 [3]) |
| --- | --- | --- | --- |
| Cc1cc(C)n2c1C=C1C=CC(CCC(=O)Nc3ccc(OCC(=O)N[C@@H]4C(=O)N5[C@@H]4SC(C)(C)[C@@H]5C(=O)O)cc3)=[N+]1[B-]2(F)F [Bocillin-FL] | Bd3459 (S70A) bound significantly less Bocillin-FL | Bd3459 covalently bound the fluorescent beta-lactam Bocillin-FL |  |
| CC1(C)S[C@@H]2[C@H](NC(=O)[C@H](N)c3ccccc3)C(=O)N2[C@H]1C(=O)O [ampicillin] |  |  | The addition of the beta-lactam ampicillin inhibited the WT enzyme |
